This is an account of results in patent publication US20140045807A2, “THE USE OF 3-METHOXY-PREGNENOLONE FOR THE PREPARATION OF A DRUG FOR TREATING A TRAUMATIC BRAIN INJURY” (priority 2004, published 2014).

A value given as a limit tells only on which side of the number the result lay.

For one experiment, the system named is CHI traumatized animals. Description: MRI of ventricular dilatation after Closed Head Injury (CHI). It is filed as in vivo, rat. To be noted: 20 mg/kg starting 24 hours post-trauma, day 28, compared to the vehicle. Here is the method: FIG. 17: Ventricular dilatation of Control animals injected with sesame oil (Control) and CHI traumatized animals injected with sesame oil (CHI-D0), or MAP4343 at 10 mg/kg (CHI-D1) or 20 mg/kg (CHI-D2) at day 28 post-trauma. (A) Representative MRI images.
The model “Closed Head Injury” (CHI), also commonly known as “weight-drop”, “impact-acceleration” or Marmarou model, allows the induction of TBI on a closed skull and generates diffuse axonal injuries (Holtzer et al 2001). After anesthesia induction, the scalp was incised, a piece of metal (diameter […], height 3 mm)—designed to protect against skull fracture—was glued to the skull, between the lambda and bregma. The animal was then placed on a foam bed and a cylindrical metallic 230-g weight was dropped from 2 m through a metal tubing onto the disk. At the very moment of the impact, the head of the animal plunged briefly in the foam bed, which leads to an acceleration/deceleration of the brain inside the skull. […]
MRI imaging of rats was performed at day 28 post-trauma. Based on MRI imaging, ventricular dilatation induced by CHI trauma was analyzed in CHI traumatized rats injected from 24 hours post-trauma with sesame oil (CHI-D0), or 3-methoxy-PREG (MAP4343) at 10 mg/kg (CHI-D1) or 20 mg/kg (CHI-D2).

Experiment [1] has as its system human neuroblastoma HS-SY5Y cells. Put plainly: Cytotoxicity of okadaic acid, steroid protection (LDH release). It is filed as cell-based. The conditions noted are these: 24 hours, simultaneous addition, increasing concentrations. From the text:
FIG. 6: Toxicity of okadaic acid. Steroid protection. […] Cell death was indicated by the release of lactate dehydrogenase (LDH) in the culture medium.
Okadaic acid is a protein phosphatase inhibiter. Thus, the hyperphosphorylation of tau protein is implicated in microtubule depolymerization and in human neuroblastoma HS-SY5Y cell death. The exposure of SY5Y cell cultures to okadaic acid does in fact cause significant cell death.

A further experiment deals with PC12 cells. Put plainly: Neuritic growth / sprouting in PC12 cells with NGF. The class given is cell-based, rat. The conditions noted are these: increasing concentrations, 2, 5 and 8 days of culture (FIG. 3).
In experiment [2] the target is purified tubulin and MAP2 (Homo sapiens, UniProt P11137). Put plainly: MAP2-induced polymerization of microtubules in vitro (optical density at 345 nm). It is filed as biochemical. Here is the method:
Purified MAP2 and tubulin are mixed in the presence of GTP at 4° C. in a spectrophotometer cuvette. Polymerization is induced by heating at 37° C. and is followed by the increase in optical density (OD) which indicates the quantity of polymers formed.
This in vitro test measures the effect of molecules on the MAP2-induced polymerization of microtubules. This polymerization occurs when MAP2 proteins and tubulin are mixed at adequate concentrations in the presence of GTP. It is accompanied by an increase in optical density measured at 345 nm for 15 to 30 minutes with a UNICON spectrophotometer thermostated at 37° C. (FIG. 1).
Activity is measured by the increase in optical density at 345 nm of a mixture of purified tubulin and MAP2, incubated at 37° C. in the presence of GTP.

The next experiment relates to synaptophysin. Put plainly: Western blot of synaptophysin in cortex and hippocampus after CCI. It is filed as in vivo, rat. The conditions noted are these: 20 mg/kg, first injection 2 h post-trauma, day 35, injured hippocampus. As to the method: FIG. 22: Synaptophysin expression, 35 days after TBI, in the left-uninjured and right-injured hemispheres (A: cortex and B: hippocampus) of CCI-injured animals, receiving either vehicle (D0) or MAP4343 (D1: 10 mg/kg and D2: 20 mg/kg), 2 h after injury.
Samples were analyzed by Western-blot at day 35 post-trauma (D35) to evaluate the effects of MAP4343 on: MAP2 (the target of MAP4343 and a modulator of microtubule function), the post-synaptic markers PSD95 and spinophilin, the pre-synaptic marker synaptophysin, and the axonal growth/integrity marker GAP43.
Western blot was performed on cortex and hippocampus of TBI-injured animals receiving the first injection of MAP4343 (at 10 mg/kg or 20 mg/kg) or vehicle (sesame oil) 2 h after injury.
The expression level of various neuronal brain markers of plasticity was measured at day 35 post-trauma by western-blots in the cortex and hippocampus of left uninjured and right injured cerebral hemispheres of CCI traumatized animals receiving either vehicle (sesame oil, CCI-D0) or 3-methoxy-PREG (MAP4343) at 10 mg/kg (CCI-D1) or 20 mg/kg (CCI-D2), with first MAP4343 injection 2 h post-trauma.
A general note: Immunoblotting shows a protein as a band on a membrane.

In the next experiment the target is Androgen Receptor (AR) (Rattus norvegicus, UniProt P15207). Description: Radioligand binding assay, AR. The conditions noted are these: MAP4343 10 μM; 1.5 nM [^3H] Mibolerone; Rat recombinant E. coli. As to the method:
Binding affinity of 3-methoxy-PREG (MAP4343) for receptors of steroid hormones was evaluated using radioligand binding assays.

The mark [3] stands for this setting: 40 μM, compared to control kinetics with solvent alone.

purified tubulin and MAP2, sequence (P11137 whole entry): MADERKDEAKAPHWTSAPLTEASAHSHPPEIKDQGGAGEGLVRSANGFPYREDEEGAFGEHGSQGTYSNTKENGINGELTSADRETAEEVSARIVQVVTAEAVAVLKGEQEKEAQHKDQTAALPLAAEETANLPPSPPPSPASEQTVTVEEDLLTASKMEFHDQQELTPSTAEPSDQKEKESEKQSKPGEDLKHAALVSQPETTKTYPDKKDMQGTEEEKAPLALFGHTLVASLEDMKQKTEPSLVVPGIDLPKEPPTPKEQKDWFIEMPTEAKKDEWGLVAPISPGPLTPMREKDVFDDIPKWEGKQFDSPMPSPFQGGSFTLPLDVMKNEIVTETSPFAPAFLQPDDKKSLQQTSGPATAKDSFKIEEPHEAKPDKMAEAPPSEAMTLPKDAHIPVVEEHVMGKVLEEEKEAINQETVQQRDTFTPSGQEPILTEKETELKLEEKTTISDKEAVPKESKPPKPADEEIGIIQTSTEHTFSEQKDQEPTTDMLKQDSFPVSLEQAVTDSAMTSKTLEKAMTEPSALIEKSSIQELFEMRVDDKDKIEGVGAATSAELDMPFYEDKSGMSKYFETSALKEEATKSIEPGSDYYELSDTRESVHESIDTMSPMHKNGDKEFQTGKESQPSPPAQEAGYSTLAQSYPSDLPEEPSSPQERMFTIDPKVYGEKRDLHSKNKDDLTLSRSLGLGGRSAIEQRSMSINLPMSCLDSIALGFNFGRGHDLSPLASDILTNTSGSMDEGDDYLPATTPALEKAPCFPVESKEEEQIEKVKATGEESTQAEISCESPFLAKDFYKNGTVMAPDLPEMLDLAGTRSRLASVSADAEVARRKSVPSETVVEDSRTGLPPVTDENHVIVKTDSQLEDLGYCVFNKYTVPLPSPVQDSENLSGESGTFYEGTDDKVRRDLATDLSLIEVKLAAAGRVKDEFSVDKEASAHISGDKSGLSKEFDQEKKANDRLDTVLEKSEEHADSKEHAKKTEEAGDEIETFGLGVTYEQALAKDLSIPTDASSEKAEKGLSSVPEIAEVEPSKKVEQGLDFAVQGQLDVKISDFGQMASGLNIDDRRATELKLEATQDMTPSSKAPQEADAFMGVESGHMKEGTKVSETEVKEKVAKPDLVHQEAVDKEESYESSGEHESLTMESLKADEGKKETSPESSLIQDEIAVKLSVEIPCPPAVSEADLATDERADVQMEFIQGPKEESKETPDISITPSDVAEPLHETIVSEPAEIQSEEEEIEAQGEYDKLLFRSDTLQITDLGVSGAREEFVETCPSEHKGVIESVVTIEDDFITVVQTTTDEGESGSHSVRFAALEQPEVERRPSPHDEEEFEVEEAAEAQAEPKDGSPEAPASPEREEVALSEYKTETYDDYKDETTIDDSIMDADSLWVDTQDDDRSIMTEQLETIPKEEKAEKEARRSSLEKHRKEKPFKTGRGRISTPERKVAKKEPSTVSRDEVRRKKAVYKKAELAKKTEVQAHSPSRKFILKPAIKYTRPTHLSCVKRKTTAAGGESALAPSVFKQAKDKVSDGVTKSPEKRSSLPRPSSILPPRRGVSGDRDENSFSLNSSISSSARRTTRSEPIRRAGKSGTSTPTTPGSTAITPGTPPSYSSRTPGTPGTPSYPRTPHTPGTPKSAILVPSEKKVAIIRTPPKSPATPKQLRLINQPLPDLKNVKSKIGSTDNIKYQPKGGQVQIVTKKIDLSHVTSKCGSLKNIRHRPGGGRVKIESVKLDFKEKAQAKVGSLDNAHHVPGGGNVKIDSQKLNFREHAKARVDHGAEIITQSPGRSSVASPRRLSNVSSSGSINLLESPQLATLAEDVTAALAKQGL
Androgen Receptor (AR), sequence (P15207 whole entry S389L): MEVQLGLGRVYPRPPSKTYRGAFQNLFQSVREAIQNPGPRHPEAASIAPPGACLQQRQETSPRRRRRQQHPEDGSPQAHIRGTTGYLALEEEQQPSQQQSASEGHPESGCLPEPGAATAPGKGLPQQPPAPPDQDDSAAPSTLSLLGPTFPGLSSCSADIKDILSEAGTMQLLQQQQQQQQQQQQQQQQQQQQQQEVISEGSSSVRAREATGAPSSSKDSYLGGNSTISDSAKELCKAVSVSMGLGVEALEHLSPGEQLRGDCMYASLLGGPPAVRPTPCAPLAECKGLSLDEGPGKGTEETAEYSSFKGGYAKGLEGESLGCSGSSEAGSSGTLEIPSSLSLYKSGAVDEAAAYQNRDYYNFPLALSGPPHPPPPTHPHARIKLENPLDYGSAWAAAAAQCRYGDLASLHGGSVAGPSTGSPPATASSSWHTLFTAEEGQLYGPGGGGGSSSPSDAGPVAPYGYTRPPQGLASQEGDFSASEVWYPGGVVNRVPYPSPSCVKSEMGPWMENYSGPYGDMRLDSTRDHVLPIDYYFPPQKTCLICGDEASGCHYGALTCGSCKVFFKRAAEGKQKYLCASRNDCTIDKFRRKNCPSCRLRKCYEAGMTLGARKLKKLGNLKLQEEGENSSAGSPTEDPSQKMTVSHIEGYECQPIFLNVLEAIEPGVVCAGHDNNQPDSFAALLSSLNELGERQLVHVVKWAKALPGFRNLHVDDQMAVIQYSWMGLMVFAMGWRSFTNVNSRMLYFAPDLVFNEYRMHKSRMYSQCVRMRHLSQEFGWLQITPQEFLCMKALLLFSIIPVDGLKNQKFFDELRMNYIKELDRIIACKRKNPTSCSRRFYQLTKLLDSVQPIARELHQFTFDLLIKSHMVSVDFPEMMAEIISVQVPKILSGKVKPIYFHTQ
Procedure for PC12 cells: Each molecule was tested in three culture wells. Measurements were taken for 200 cells per well using Scion Image software.
Neurite (neurite) length was measured for 200 cells per well after 2, 5, and 8 days of culture.
Stimulation of neuritic sprouting is conducted on PC12 cells differentiated in the presence of NGF (10 ng/ml) and the steroid being tested (30 μM) for 3 days. For each condition, the average length of the longest 200 neurites in each cell is measured simultaneously for 3 cultures.

As to `CO[C@H]1CC[C@@]2(C)C(=CC[C@H]3[C@@H]4CC[C@H](C(C)=O)[C@@]4(C)CC[C@@H]32)C1` [3-methoxy-PREG, 3β-methoxy-pregna-5-ene-20-one], the “ventricular dilatation (ventricles area, MRI)” value in the experiment on CHI traumatized animals is reported as “significantly decreases the ventricular dilatation”. The “cell death caused by okadaic acid (LDH release)” value in experiment [1] is listed as “the same effect, only much stronger”. The “increase in the length of neurites formed in the presence of NGF” value with PC12 cells is on record as ≤ 500%. Further, in experiment [2] (setting [3]), the “Lag time of microtubule polymerization” value is “decreased”; the “polymerization rate and quantity of microtubules” value is reported as “clearly increase”. In addition, the “effect on microtubule polymerization” value in experiment [2] (MAP2 and tubulin with GTP, 37° C.) was “activates microtubule polymerization”. Also, the “Activity (increase in optical density at 345 nm)” value in experiment [2] (purified tubulin and MAP2, 37° C., GTP) was 100% of PREG. Besides, the Synaptophysin expression entry in the experiment with synaptophysin is reported as “increase in Synaptophysin expression”. Also, the “% inhibition of specific binding” value at Androgen Receptor (AR) is listed as < 25%.
